Measured values taken from patent publication US9738644B2, “Chemical compounds, compositions and methods for kinase modulation” (Infinity Pharmaceuticals, Inc., priority 2010, dated 2017).
Read-outs that look alike come from different tables or passages of the source.

Key:
PI3K δ = molecular target: T1, PI3K δ (Homo sapiens, UniProt O00329); assay: In vitro PI3K δ inhibition assay; type: biochemical
T1 construct: purchased Upstate
Procedure: (§1) Class I PI3-Ks can be either purchased (p110α/p85α, p110β/p85α, p110δ/p85α from Upstate, and p110γ from Sigma) or expressed as previously described (Knight et al., 2004). IC50 values are measured using either a standard TLC assay for lipid kinase activity (described below) or a high-throughput membrane capture assay. Kinase reactions are performed by preparing a reaction mixture containing kinase, inhibitor (2% DMSO final concentration), buffer (25 mM HEPES, pH 7.4, 10 mM MgCl2), and freshly sonicated phosphatidylinositol (100 μg/ml). Reactions are initiated by the addition of ATP containing 10 μCi of γ-32P-ATP to a final concentration of 10 or 100 μM and allowed to proceed for 5 minutes at room temperature. For TLC analysis, reactions are then terminated by the addition of 105 μl 1N HCl followed by 160 μl CHCl3:MeOH (1:1). The biphasic mixture is vortexed, briefly centrifuged, and the organic phase is transferred to a new tube using a gel loading pipette tip precoated with CHCl3. This extract is spotted on TLC plates and developed for 3-4 hours in a 65:35 solution of n-propanol:1M acetic acid. The TLC plates are then dried, exposed to a phosphorimager screen (Storm, Amersham), and quantitated. For each compound, kinase activity is measured at 10-12 inhibitor concentrations representing two-fold dilutions from the highest concentration tested (typically, 200 μM). […] Other commercial kits or systems for assaying PI3-K activities are available. The commercially available kits or systems can be used to screen for inhibitors and/or agonists of PI3-Ks including, but not limited to, PI 3-Kinase α, β, δ, and γ. An exemplary system is PI 3-Kinase (human) HTRF™ Assay from Upstate. […] Briefly, the assay is a time resolved FRET assay that indirectly measures PIP3 product formed by the activity of a PI3-K. The kinase reaction is performed in a microtiter plate (e.g., a 384 well microtiter plate). The total reaction volume is approximately 20 μl per well. In the first step, each well receives 2 μl of test compound in 20% dimethylsulphoxide resulting in a 2% DMSO final concentration. Next, approximately 14.5 μl of a kinase/PIP2 mixture (diluted in 1× reaction buffer) is added per well for a final concentration of 0.25-0.3 μg/ml kinase and 10 μM PIP2. The plate is sealed and incubated for 15 minutes at room temperature. To start the reaction, 3.5 μl of ATP (diluted in 1× reaction buffer) is added per well for a final concentration of 10 μM ATP. The plate is sealed and incubated for 1 hour at room temperature. The reaction is stopped by adding 5 μl of Stop Solution per well and then 5 μl of Detection Mix is added per well. The plate is sealed, incubated for 1 hour at room temperature, and then read on an appropriate plate reader. Data is analyzed and IC50s are generated using GraphPad Prism 5.

PI3K γ = molecular target: T2, PI3K γ (Homo sapiens, UniProt P48736); assay: In vitro PI3K γ inhibition assay; type: biochemical
T2 construct: purchased Sigma
Procedure: as §1

PI3K α = molecular target: T3, PI3K α (Homo sapiens, UniProt P42336); assay: In vitro PI3K α inhibition assay; type: biochemical
T3 construct: purchased Upstate
Procedure: (§2) Class I PI3-Ks can be either purchased (p110α/p85α, p110β/p85α, p110δ/p85α from Upstate, and p110γ from Sigma) or expressed as previously described (Knight et al., 2004). IC50 values are measured using either a standard TLC assay for lipid kinase activity (described below) or a high-throughput membrane capture assay. Kinase reactions are performed by preparing a reaction mixture containing kinase, inhibitor (2% DMSO final concentration), buffer (25 mM HEPES, pH 7.4, 10 mM MgCl2), and freshly sonicated phosphatidylinositol (100 μg/ml). Reactions are initiated by the addition of ATP containing 10 μCi of γ-32P-ATP to a final concentration of 10 or 100 μM and allowed to proceed for 5 minutes at room temperature. For TLC analysis, reactions are then terminated by the addition of 105 μl 1N HCl followed by 160 μl CHCl3:MeOH (1:1). The biphasic mixture is vortexed, briefly centrifuged, and the organic phase is transferred to a new tube using a gel loading pipette tip precoated with CHCl3. This extract is spotted on TLC plates and developed for 3-4 hours in a 65:35 solution of n-propanol:1M acetic acid. The TLC plates are then dried, exposed to a phosphorimager screen (Storm, Amersham), and quantitated. For each compound, kinase activity is measured at 10-12 inhibitor concentrations representing two-fold dilutions from the highest concentration tested (typically, 200 μM).
(§3) Other commercial kits or systems for assaying PI3-K activities are available. The commercially available kits or systems can be used to screen for inhibitors and/or agonists of PI3-Ks including, but not limited to, PI 3-Kinase α, β, δ, and γ. An exemplary system is PI 3-Kinase (human) HTRF™ Assay from Upstate. […] Briefly, the assay is a time resolved FRET assay that indirectly measures PIP3 product formed by the activity of a PI3-K. The kinase reaction is performed in a microtiter plate (e.g., a 384 well microtiter plate). The total reaction volume is approximately 20 μl per well. In the first step, each well receives 2 μl of test compound in 20% dimethylsulphoxide resulting in a 2% DMSO final concentration. Next, approximately 14.5 μl of a kinase/PIP2 mixture (diluted in 1× reaction buffer) is added per well for a final concentration of 0.25-0.3 μg/ml kinase and 10 μM PIP2. The plate is sealed and incubated for 15 minutes at room temperature. To start the reaction, 3.5 μl of ATP (diluted in 1× reaction buffer) is added per well for a final concentration of 10 μM ATP. The plate is sealed and incubated for 1 hour at room temperature. The reaction is stopped by adding 5 μl of Stop Solution per well and then 5 μl of Detection Mix is added per well. The plate is sealed, incubated for 1 hour at room temperature, and then read on an appropriate plate reader. Data is analyzed and IC50s are generated using GraphPad Prism 5.

PI3K β = molecular target: T4, PI3K β (Homo sapiens, UniProt P42338); assay: In vitro PI3K β inhibition assay; type: biochemical
T4 construct: purchased Upstate
Procedure: as §2, §3

Balb/c splenic B cells = assay: B cell activation and proliferation assay (Alamar Blue); type: cell-based; conditions: Mus musculus
Procedure: The ability of one or more subject compounds to inhibit B cell activation and proliferation is determined according to standard procedures known in the art. For example, an in vitro cellular proliferation assay is established that measures the metabolic activity of live cells. The assay is performed in a 96 well microtiter plate using Alamar Blue reduction. Balb/c splenic B cells are purified over a Ficoll-Paque™ PLUS gradient followed by magnetic cell separation using a MACS B cell Isolation Kit (Miletenyi). Cells are plated in 90 μl at 50,000 cells/well in B Cell Media (RPMI+10% FBS+Penn/Strep+50 μM bME+5 mM HEPES). A compound disclosed herein is diluted in B Cell Media and added in a 10 μl volume. Plates are incubated for 30 min at 37° C. and 5% CO2 (0.2% DMSO final concentration). A 50 μl B cell stimulation cocktail is then added containing either 10 μg/ml LPS or 5 μg/ml F(ab′)2 Donkey anti-mouse IgM plus 2 ng/ml recombinant mouse IL4 in B Cell Media. Plates are incubated for 72 hours at 37° C. and 5% CO2. A volume of 15 μL of Alamar Blue reagent is added to each well and plates are incubated for 5 hours at 37° C. and 5% CO2. Alamar Blue fluoresce is read at 560Ex/590Em, and IC50 or EC50 values are calculated using GraphPad Prism 5.

B6.Sle1z.Sle3z model = conditions: cited from earlier work
[1] = PBS pH 7.4, 37° C., 24 hours; cited from earlier work
[2] = reference compounds, 5 μM; cited from earlier work
[3] = read-out: B cell proliferation EC50
[4] = read-out: B cell proliferation EC50 (nM)

T3 sequence (P42336 whole entry): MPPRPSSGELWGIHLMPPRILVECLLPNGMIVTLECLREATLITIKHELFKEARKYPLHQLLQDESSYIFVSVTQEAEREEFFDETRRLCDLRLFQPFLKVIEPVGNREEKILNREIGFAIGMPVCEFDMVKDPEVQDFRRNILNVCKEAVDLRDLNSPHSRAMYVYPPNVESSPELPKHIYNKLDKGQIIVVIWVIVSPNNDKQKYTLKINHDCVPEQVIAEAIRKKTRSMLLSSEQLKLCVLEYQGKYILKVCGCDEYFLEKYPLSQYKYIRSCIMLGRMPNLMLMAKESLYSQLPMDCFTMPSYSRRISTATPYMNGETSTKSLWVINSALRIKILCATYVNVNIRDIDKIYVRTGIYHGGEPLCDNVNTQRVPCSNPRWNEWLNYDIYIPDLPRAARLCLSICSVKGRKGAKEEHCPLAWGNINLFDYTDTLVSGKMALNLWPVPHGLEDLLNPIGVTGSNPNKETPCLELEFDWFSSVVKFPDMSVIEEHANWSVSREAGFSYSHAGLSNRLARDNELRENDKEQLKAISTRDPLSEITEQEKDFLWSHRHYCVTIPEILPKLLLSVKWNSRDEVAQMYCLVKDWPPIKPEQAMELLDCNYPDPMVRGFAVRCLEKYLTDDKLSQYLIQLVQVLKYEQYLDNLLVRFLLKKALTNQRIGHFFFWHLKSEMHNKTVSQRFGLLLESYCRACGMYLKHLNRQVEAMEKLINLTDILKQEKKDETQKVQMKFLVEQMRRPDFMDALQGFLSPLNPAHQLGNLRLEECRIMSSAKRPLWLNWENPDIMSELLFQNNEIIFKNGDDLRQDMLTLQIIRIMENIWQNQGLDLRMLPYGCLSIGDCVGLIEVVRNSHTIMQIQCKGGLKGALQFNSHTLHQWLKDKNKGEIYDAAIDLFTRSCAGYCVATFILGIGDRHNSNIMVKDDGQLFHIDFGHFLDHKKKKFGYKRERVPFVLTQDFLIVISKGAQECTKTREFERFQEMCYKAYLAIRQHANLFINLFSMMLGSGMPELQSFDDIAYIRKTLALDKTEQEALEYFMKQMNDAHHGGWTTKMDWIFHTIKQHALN
T3 sequence (P27986 whole entry partner): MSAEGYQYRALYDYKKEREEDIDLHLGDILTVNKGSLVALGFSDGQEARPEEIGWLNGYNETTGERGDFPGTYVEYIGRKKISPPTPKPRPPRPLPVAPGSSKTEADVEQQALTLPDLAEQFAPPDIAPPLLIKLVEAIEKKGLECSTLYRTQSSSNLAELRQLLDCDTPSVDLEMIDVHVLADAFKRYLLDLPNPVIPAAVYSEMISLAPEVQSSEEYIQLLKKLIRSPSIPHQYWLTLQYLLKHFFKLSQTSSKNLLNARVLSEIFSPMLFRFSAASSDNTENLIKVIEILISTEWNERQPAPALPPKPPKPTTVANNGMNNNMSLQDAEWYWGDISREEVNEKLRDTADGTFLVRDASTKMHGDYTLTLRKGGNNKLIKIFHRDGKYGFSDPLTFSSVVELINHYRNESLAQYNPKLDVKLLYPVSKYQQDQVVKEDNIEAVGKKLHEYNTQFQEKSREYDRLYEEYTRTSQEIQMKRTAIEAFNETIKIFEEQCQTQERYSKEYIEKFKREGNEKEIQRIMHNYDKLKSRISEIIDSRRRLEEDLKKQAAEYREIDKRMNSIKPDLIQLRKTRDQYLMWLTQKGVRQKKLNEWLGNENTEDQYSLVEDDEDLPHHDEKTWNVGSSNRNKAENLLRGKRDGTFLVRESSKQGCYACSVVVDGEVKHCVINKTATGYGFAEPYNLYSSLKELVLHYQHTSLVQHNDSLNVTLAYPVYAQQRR
T4 sequence (P42338 whole entry): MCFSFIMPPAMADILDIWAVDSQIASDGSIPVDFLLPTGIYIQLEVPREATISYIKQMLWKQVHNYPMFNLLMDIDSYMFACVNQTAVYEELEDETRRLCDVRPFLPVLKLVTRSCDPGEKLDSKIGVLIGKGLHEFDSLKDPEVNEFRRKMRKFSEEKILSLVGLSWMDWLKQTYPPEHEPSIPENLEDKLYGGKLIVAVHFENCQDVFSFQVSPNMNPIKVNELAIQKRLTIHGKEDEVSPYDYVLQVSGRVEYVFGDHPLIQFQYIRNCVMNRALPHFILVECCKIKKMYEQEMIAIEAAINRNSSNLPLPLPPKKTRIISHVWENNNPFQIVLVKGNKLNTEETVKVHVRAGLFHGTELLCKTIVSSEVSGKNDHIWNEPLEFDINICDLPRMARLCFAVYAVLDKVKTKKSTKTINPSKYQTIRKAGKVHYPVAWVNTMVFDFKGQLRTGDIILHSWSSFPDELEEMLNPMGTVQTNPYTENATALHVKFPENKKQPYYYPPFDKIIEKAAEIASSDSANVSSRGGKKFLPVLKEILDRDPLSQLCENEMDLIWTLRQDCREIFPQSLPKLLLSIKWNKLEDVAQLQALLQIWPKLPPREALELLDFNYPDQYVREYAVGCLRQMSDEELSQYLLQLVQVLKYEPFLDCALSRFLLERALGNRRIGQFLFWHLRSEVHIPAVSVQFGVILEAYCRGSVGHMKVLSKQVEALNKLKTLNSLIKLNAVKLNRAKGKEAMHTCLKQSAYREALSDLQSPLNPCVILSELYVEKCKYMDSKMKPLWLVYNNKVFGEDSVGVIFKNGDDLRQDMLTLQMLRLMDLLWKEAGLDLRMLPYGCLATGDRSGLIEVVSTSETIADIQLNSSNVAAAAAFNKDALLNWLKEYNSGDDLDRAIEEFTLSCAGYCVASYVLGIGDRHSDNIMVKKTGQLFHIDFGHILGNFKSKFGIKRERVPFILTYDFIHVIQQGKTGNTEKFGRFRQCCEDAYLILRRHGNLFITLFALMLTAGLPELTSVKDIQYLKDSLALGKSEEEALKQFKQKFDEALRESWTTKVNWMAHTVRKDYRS
T4 sequence (P27986 whole entry partner): as the sequence (P27986 whole entry partner) above
T2 sequence (P48736 whole entry): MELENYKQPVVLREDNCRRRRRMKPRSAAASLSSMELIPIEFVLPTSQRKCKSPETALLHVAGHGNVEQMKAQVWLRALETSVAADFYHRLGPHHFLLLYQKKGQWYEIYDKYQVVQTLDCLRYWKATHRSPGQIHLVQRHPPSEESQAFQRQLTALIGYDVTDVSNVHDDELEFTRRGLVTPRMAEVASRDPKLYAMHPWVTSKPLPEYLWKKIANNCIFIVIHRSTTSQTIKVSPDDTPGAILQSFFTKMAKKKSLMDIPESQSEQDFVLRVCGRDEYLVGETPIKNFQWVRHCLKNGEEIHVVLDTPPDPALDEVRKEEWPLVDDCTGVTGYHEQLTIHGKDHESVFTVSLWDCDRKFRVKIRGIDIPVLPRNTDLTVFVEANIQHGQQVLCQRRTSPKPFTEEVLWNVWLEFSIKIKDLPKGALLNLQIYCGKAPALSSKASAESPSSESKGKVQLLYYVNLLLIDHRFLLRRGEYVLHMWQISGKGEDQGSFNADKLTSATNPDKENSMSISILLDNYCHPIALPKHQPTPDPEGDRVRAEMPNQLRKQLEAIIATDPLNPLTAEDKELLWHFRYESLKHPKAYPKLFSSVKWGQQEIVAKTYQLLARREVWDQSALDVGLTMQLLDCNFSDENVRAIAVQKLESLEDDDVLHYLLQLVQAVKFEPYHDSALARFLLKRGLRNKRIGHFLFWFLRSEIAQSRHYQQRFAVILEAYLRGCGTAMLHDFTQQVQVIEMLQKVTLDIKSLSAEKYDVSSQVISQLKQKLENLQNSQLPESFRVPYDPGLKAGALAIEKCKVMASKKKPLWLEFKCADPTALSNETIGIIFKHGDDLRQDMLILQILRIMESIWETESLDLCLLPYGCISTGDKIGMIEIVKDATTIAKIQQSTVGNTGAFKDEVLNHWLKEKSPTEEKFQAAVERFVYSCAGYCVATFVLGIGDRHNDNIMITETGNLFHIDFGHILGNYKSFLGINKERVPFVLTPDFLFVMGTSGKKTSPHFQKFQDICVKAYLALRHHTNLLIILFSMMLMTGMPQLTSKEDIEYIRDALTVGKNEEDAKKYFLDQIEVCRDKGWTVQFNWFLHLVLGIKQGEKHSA
T1 sequence (O00329 whole entry): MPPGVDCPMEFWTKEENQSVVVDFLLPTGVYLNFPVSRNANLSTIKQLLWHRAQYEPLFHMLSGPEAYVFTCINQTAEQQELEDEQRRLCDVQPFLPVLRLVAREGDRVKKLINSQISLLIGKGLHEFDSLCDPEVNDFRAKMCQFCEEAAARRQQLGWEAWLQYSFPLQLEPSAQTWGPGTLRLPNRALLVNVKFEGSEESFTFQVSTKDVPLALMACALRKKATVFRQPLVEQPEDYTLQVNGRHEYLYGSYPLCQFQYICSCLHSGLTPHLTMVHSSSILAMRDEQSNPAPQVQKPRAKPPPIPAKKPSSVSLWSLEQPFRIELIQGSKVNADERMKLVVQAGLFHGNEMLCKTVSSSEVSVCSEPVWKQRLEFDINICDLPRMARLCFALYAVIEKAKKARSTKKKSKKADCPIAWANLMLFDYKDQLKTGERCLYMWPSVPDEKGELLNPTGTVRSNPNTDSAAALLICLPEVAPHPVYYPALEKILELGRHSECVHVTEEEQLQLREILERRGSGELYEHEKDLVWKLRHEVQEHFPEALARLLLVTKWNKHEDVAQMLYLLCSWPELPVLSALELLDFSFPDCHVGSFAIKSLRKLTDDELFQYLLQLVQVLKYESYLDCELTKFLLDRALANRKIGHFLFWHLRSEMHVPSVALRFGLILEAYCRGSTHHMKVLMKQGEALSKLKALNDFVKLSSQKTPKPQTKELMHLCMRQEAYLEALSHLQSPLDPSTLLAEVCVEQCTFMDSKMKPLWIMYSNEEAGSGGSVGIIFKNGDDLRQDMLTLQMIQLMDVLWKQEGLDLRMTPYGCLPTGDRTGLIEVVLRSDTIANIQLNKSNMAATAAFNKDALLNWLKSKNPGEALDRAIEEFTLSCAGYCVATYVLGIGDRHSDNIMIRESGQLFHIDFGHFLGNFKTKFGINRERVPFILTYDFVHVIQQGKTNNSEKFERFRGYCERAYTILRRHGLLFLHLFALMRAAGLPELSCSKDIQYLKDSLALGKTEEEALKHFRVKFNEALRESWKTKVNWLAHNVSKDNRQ
T1 sequence (P27986 whole entry partner): as the sequence (P27986 whole entry partner) above

SMILES	IC50 (PI3K δ)	IC50 (PI3K γ)	IC50 (PI3K α)	IC50 (PI3K β)	EC50 (Balb/c splenic B cells; [3])	EC50 (Balb/c splenic B cells; [4])	lupus symptoms (B6.Sle1z.Sle3z model)	chemical stability [1]	plasma stability [2]
C[C@@H](Nc1ncnc2[nH]cnc12)c1cc2cccc(-c3cccnc3)c2c(=O)n1-c1ccccc1 (stereo in doubt) [Compound 7]	< 100 nM	< 100 nM	< 10000 nM	< 10000 nM	< 100 nM				
C=Cc1cccc2cc(C(C)Nc3ncnc4[nH]cnc34)n(-c3ccccc3)c(=O)c12 (stereo in doubt) [Compound 8, (S)-3-(1-((9H-purin-6-yl)amino)ethyl)-2-phenyl-8-vinylisoquinolin-1(2H)-one]	< 100 nM	< 100 nM	< 10000 nM	< 10000 nM	< 100 nM				
CCc1cccc2cc(C(C)Nc3ncnc4[nH]cnc34)n(-c3ccccc3)c(=O)c12 (stereo in doubt) [Compound 9, (S)-3-(1-((9H-purin-6-yl)amino)ethyl)-8-ethyl-2-phenylisoquinolin-1(2H)-one]	< 100 nM	< 100 nM	< 10000 nM	< 10000 nM	< 100 nM				
C[C@@H](Nc1ncnc2[nH]cnc12)c1cc2cccc(-c3cccnc3)c2c(=O)n1C1CC1 (stereo in doubt) [Compound 13]	< 100 nM	< 100 nM	< 10000 nM	< 1000 nM		< 100 nM			
CC(Nc1ncnc2[nH]cnc12)c1cc2cccc(C#N)c2c(=O)n1-c1ccccc1 (stereo in doubt) [Compound 16, (S)-3-(1-((9H-purin-6-yl)amino)ethyl)-1-oxo-2-phenyl-1,2-dihydroisoquinoline-8-carbonitrile]	< 100 nM	< 100 nM	> 10000 nM	< 10000 nM	< 100 nM				
C[C@@H](Nc1ncnc2[nH]cnc12)c1cc2cccc(N(C)C)c2c(=O)n1-c1ccccc1 (stereo in doubt) [Compound 17]	< 10000 nM	< 10000 nM	> 10000 nM	> 10000 nM	< 100 nM				
C[C@@H](Nc1ncnc2[nH]cnc12)c1cc2cccc(-c3cc[nH]n3)c2c(=O)n1-c1ccccc1 (stereo in doubt) [Compound 18]	< 100 nM	< 100 nM	> 10000 nM	> 10000 nM	< 100 nM				
C[C@@H](Nc1ncnc2[nH]cnc12)c1cc2cccc(-c3cnn(C)c3)c2c(=O)n1-c1ccccc1 (stereo in doubt) [Compound 19]	< 100 nM	< 100 nM	> 10000 nM	> 10000 nM	< 100 nM				
C[C@@H](Nc1ncnc2[nH]cnc12)c1cc2cccc(-c3cnn(C)c3)c2c(=O)n1C1CC1 (stereo in doubt) [Compound 20]	< 100 nM	< 1000 nM	< 10000 nM	< 10000 nM	< 100 nM				
C[C@@H](Nc1ncnc2[nH]cnc12)c1cc2cccc(-c3ccncc3)c2c(=O)n1-c1ccccc1 (stereo in doubt) [Compound 21]	< 100 nM	< 100 nM	< 10000 nM	< 10000 nM	< 100 nM				
C[C@@H](Nc1ncnc2[nH]cnc12)c1cc2cccc(-c3cccc(F)c3)c2c(=O)n1-c1ccccc1 (stereo in doubt) [Compound 25]	< 100 nM	< 100 nM	< 10000 nM	< 10000 nM		< 100 nM			
C[C@@H](Nc1ncnc2[nH]cnc12)c1cc2cccc(-c3cn[nH]c3)c2c(=O)n1C1CC1 [Compound 12]	< 100 nM	< 100 nM	< 1000 nM	< 1000 nM	< 100 nM				
CO[C@H]1C[C@@H]2CC[C@@H](C)[C@@](O)(O2)C(=O)C(=O)N2CCCC[C@H]2C(=O)O[C@H]([C@H](C)C[C@@H]2CC[C@@H](OCCO)[C@H](OC)C2)CC(=O)[C@H](C)/C=C(\C)[C@@H](O)[C@@H](OC)C(=O)[C@H](C)C[C@H](C)/C=C/C=C/C=C/1C [RAD001, everolimus]							ameliorate lupus symptoms		
O=C(O)CCCc1ccc(N(CCCl)CCCl)cc1 [chlorambucil]								largely hydrolyzed over the course of 24 hours	
CC(C)[N+](C)(CCOC(=O)C1c2ccccc2Oc2ccccc21)C(C)C [propantheline]									intermediate plasma stability
CCCOc1cc(N)ccc1C(=O)OCCN(CC)CC [propoxycaine]									low plasma stability
